Values of other authors as cited in patent publication US12084679B2, “Methods of in vitro differentiation of midbrain dopamine (mDA) neurons” (MEMORIAL SLOAN-KETTERING CANCER CENTER, priority 2015, dated 2024).

Experiments:
ALK3 = ALK3 (Homo sapiens, UniProt P36894)
ALK6 = ALK6 (Homo sapiens, UniProt O00238)
ALK2 = biological target: T1, ALK2 (Homo sapiens, UniProt Q04771)
T1 sequence (Q04771 21-509): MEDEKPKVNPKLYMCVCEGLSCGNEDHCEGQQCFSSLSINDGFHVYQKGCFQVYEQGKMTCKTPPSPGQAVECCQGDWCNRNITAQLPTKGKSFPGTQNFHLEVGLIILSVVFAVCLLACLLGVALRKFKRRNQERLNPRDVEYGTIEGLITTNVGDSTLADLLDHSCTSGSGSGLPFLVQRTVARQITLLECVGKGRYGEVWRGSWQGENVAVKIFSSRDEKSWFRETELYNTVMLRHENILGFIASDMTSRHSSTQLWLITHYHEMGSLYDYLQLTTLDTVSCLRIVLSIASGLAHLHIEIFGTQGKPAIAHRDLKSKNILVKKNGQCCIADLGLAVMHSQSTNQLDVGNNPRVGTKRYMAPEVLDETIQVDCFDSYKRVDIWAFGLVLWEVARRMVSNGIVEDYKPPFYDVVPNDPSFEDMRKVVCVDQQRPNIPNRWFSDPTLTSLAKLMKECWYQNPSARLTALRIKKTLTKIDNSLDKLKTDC

ALK6, sequence (O00238 14-502): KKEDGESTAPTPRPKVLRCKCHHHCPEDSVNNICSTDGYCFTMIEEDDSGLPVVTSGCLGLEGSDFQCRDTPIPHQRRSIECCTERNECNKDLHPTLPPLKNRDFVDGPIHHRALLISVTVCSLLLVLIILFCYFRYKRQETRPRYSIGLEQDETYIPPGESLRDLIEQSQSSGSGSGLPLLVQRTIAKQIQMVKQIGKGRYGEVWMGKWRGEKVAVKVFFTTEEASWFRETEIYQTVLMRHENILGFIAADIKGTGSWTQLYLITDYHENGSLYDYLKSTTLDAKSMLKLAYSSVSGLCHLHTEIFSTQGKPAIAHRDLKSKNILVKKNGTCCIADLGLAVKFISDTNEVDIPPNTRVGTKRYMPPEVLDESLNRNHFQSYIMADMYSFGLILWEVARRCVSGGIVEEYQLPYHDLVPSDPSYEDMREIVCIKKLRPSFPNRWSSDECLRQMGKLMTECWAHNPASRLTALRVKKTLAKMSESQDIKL
ALK3, sequence (P36894 24-532, species assumed): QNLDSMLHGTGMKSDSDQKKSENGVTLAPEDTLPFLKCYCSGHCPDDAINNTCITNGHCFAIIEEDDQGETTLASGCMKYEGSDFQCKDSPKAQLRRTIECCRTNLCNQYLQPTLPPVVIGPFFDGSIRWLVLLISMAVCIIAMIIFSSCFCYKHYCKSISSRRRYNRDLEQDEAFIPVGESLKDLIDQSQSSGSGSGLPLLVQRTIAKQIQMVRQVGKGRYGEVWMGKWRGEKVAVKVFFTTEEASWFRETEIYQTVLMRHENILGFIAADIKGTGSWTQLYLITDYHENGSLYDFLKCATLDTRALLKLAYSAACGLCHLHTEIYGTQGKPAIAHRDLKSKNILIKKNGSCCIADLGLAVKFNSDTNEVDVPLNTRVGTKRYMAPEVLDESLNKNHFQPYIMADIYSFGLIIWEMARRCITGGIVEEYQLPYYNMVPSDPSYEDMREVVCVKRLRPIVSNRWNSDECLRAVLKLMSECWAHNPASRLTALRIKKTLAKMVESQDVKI

Row | IC50 values against rodent GSK3β homologs (rodent GSK3β homologs) | inhibitor of ALK3 (ALK3) | inhibitor of ALK6 (ALK6) | inhibitor of ALK2 (ALK2) | Structure (SMILES)
1 | nanomolar |  |  |  | Cc1c[nH]c(-c2cnc(NCCNc3ccc(C#N)cn3)nc2-c2ccc(Cl)cc2Cl)n1 [CHIR99021, 6-(2-(4-(2,4-dichlorophenyl)-5-(4-methyl-H-imidazol-2-yl)pyrimidin-2-ylamino)ethylamino)nicotinonitrile]
2 |  | highly potent | highly potent | highly potent | c1ccc2c(-c3cnn4cc(-c5ccc(N6CCNCC6)cc5)cnc34)ccnc2c1 [LDN193189, 4-(6-(4-(piperazin-1-yl)phenyl)pyrazolo[1,5-a]pyrimidin-3-yl)quinoline]
